Measured values published in PubChem BioAssay AID240 (DTP/NCI, 2004).
“And” between values parts separate entries of the source, which are not always exact repeats. Equal entries are not always repeated. Inconclusive results and toxic doses are left out.

Test system: Lymphoma 4 ip in BDF1 mice, median survival
Experiment: NCI In Vivo Anticancer Drug Screen. Data for tumor model Lymphoma 4 (intraperitoneal) in B6D2F1 (BDF1) mice
Settings: endpoint: median survival time, higher = longer survival
Experimental: The antitumor activity of compounds was measured in mice bearing transplantable tumors. Survival or tumor size were measured and the results are expressed as the measurement made in the treated group (T) divided by the measurement made in the vehicle treated control group (C). The tumor model used in this assay is Lymphoma 4 (intraperitoneal) in B6D2F1 (BDF1) mice

[1] = dose: 15.6 mg/kg/injection, schedule: Q01DX010 (ip), vehicle: saline
[2] = dose: 31.3 mg/kg/injection, schedule: Q01DX010 (ip), vehicle: saline
[3] = dose: 62.5 mg/kg/injection, schedule: Q01DX010 (ip), vehicle: saline
[4] = dose: 125.0 mg/kg/injection, schedule: Q01DX010 (ip), vehicle: saline
[5] = dose: 250.0 mg/kg/injection, schedule: Q01DX010 (ip), vehicle: saline
[6] = dose: 12.5 mg/kg/injection, schedule: Q01DX010 (ip), vehicle: saline
[7] = dose: 25.0 mg/kg/injection, schedule: Q01DX010 (ip), vehicle: saline
[8] = dose: 50.0 mg/kg/injection, schedule: Q01DX010 (ip), vehicle: saline
[9] = dose: 4.0 mg/kg/injection, schedule: Q01DX010 (ip), vehicle: saline
[10] = dose: 8.0 mg/kg/injection, schedule: Q01DX010 (ip), vehicle: saline
[11] = dose: 16.0 mg/kg/injection, schedule: Q01DX010 (ip), vehicle: saline
[12] = dose: 32.0 mg/kg/injection, schedule: Q01DX010 (ip), vehicle: saline
[13] = dose: 3.13 mg/kg/injection, schedule: Q01DX010 (ip), vehicle: saline
[14] = dose: 6.25 mg/kg/injection, schedule: Q01DX010 (ip), vehicle: saline
[15] = dose: 0.25 mg/kg/injection, schedule: Q01DX010 (ip), vehicle: saline
[16] = dose: 1.0 mg/kg/injection, schedule: Q01DX010 (ip), vehicle: saline
[17] = dose: 2.0 mg/kg/injection, schedule: Q01DX010 (ip), vehicle: saline
[18] = dose: 1.25 mg/kg/injection, schedule: Q01DX010 (ip), vehicle: saline

With `COc1ccc2c(c1OC)C(=O)O[C@@H]2[C@H]1c2c(cc3c(c2OC)OCO3)CCN1C` the T/C [1] was 107 % of control, the T/C [2] was 106 % of control and 107 % of control and the T/C [3] was 96 % of control and 107 % of control. The T/C [4] was 93 % of control and 96 % of control and the T/C [5] was 93 % of control.

In the case of `COc1cc(-c2ccc(Nc3ccccc3C(=O)O)c(OC)c2)ccc1Nc1ccccc1C(=O)O`, the T/C [6] was 107 % of control, the T/C [7] was 115 % of control and the T/C [8] was 123 % of control.

In the case of `N=C(N)SCc1c2ccccc2c(CSC(=N)N)c2ccccc12`, the T/C (dose: 5.0 mg/kg/injection, schedule: Q01DX010 (ip), vehicle: saline) was 170 % of control, the T/C (dose: 10.0 mg/kg/injection, schedule: Q01DX010 (ip), vehicle: saline) was 211 % of control and the T/C (dose: 20.0 mg/kg/injection, schedule: Q01DX010 (ip), vehicle: saline) was 303 % of control. For the same compound, the T/C (dose: 40.0 mg/kg/injection, schedule: Q01DX010 (ip), vehicle: saline) was 96 % of control.

For `CN1CC[C@]23c4c5ccc(O)c4O[C@H]2C(=O)CC[C@H]3[C@H]1C5`, the T/C [9] was 96 % of control, the T/C [10] was 100 % of control and 103 % of control and the T/C [11] was 96 % of control and 100 % of control. The T/C [12] was 96 % of control and 100 % of control.

`CCN(CC)CCNc1ccc(C)c2sc3ccccc3c(=O)c12` was tested, and the T/C [7] was 103 % of control, the T/C [8] was 120 % of control and 123 % of control and the T/C (dose: 100.0 mg/kg/injection, schedule: Q01DX010 (ip), vehicle: saline) was 103 % of control.

For `CCCNc1ncnc2[nH]ncc12`, the T/C [13] was 109 % of control and 111 % of control, the T/C [14] was 103 % of control and 123 % of control and the T/C [6] was 103 % of control and 117 % of control. The T/C [7] was 91 % of control and 109 % of control.

With `CC(=O)NC1=C(N2CC2)C(=O)C(NC(C)=O)=C(N2CC2)C1=O` the T/C [15] was 121 % of control, the T/C [16] was 175 % of control and the T/C [17] was 164 % of control.

With `Oc1cc(CN(CCCl)CCCl)c(O)cc1CN(CCCl)CCCl` the T/C (dose: 0.63 mg/kg/injection, schedule: Q01DX010 (ip), vehicle: saline) was 113 % of control and 120 % of control and the T/C [18] was 106 % of control and 116 % of control.

`Nc1nc(=S)c2ncn(C3OC(CO)C(O)C3O)c2[nH]1` (stereo unspecified) was tested, and the T/C [15] was 100 % of control, the T/C (dose: 0.5 mg/kg/injection, schedule: Q01DX010 (ip), vehicle: saline) was 106 % of control and the T/C [16] was 102 % of control and 115 % of control. For the same compound, the T/C [17] was 100 % of control.

For `CCn1cnc2c(=S)nc[nH]c21`, the T/C [9] was 96 % of control, the T/C [10] was 100 % of control and the T/C [1] was 93 % of control and 106 % of control. The T/C [11] was 96 % of control, the T/C [2] was 103 % of control and the T/C [12] was 96 % of control and 100 % of control. The T/C [3] was 100 % of control.

With `O=CCC(O)C(O)C(O)CO` (stereo unspecified) the T/C [3] was 100 % of control, the T/C [4] was 100 % of control and 103 % of control and the T/C [5] was 103 % of control and 107 % of control. The T/C (dose: 500.0 mg/kg/injection, schedule: Q01DX010 (ip), vehicle: saline) was 100 % of control and 110 % of control.

With `Nc1nc(=S)c2[nH]cnc2[nH]1` the T/C (dose: 1.25 mg/kg/injection, schedule: Q01DX010 (ip), vehicle: other) was 88 % of control, the T/C [18] was 94 % of control and the T/C (dose: 2.5 mg/kg/injection, schedule: Q01DX010 (ip), vehicle: saline) was 88 % of control.

`C[C@]12C=CC(=O)C=C1CC[C@@H]1[C@@H]2[C@@H](O)C[C@@]2(C)[C@H]1CC[C@]2(O)C(=O)CO` was tested, and the T/C (dose: 12.5 mg/kg/injection, schedule: Q01DX010 (sc), vehicle: steriod suspending solution) was 123 % of control, the T/C (dose: 25.0 mg/kg/injection, schedule: Q01DX010 (sc), vehicle: steriod suspending solution) was 116 % of control and the T/C (dose: 50.0 mg/kg/injection, schedule: Q01DX010 (sc), vehicle: steriod suspending solution) was 110 % of control. For the same compound, the T/C (dose: 100.0 mg/kg/injection, schedule: Q01DX010 (sc), vehicle: steriod suspending solution) was 116 % of control.

With `N#CCSc1ncnc2nc[nH]c12` the T/C (dose: 15.0 mg/kg/injection, schedule: Q01DX010 (ip), vehicle: saline) was 103 % of control, the T/C (dose: 30.0 mg/kg/injection, schedule: Q01DX010 (ip), vehicle: saline) was 100 % of control and 107 % of control and the T/C (dose: 60.0 mg/kg/injection, schedule: Q01DX010 (ip), vehicle: saline) was 100 % of control and 107 % of control. For the same compound, the T/C (dose: 120.0 mg/kg/injection, schedule: Q01DX010 (ip), vehicle: saline) was 107 % of control.

With `CN(C)c1ccc(Nc2c3ccccc3nc3ccccc23)cc1` the T/C (dose: 36.0 mg/kg/injection, schedule: Q01DX010 (ip), vehicle: saline) was 107 % of control, the T/C (dose: 54.0 mg/kg/injection, schedule: Q01DX010 (ip), vehicle: saline) was 100 % of control and 115 % of control and the T/C (dose: 80.0 mg/kg/injection, schedule: Q01DX010 (ip), vehicle: saline) was 121 % of control and 123 % of control.

With `O=[n+]1c2c(n([O-])c3ccccc31)-c1cccc3cccc-2c13` the T/C [13] was 107 % of control, the T/C [14] was 107 % of control and the T/C [6] was 115 % of control. The T/C [7] was 100 % of control.
